Measured values published in PubChem BioAssay AID248 (DTP/NCI, 2004).
“And” between values parts separate entries of the source, which are not always exact repeats. Equal entries are not always repeated. Inconclusive results and toxic doses are left out. Cut-off read from the data, not from the text of the source: active = T/C of 150% or more; inactive = T/C below 125%.

Test system: L1210 leukemia ip in BDF1 mice, survival T/C
Assay: NCI In Vivo Anticancer Drug Screen. Data for tumor model L1210 Leukemia (intraperitoneal) in B6D2F1 (BDF1) mice
Conditions: endpoint: mean survival time, higher = longer survival
In short: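 Ratio derived from survival: compound-dosed mice over vehicle-dosed mice, all bearing a transplantable tumor.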

[1] = dose: 100.0 mg/kg/injection, schedule: Q01DX009 (ip), vehicle: Klucel (hydroxypropylcellulose) (HPC)
[2] = dose: 100.0 mg/kg/injection, schedule: Q04DX002 (ip), vehicle: Klucel (hydroxypropylcellulose) (HPC)
[3] = dose: 100.0 mg/kg/injection, schedule: Q04DX003 (ip), vehicle: Klucel (hydroxypropylcellulose) (HPC)
[4] = dose: 200.0 mg/kg/injection, schedule: Q01DX009 (ip), vehicle: Klucel (hydroxypropylcellulose) (HPC)
[5] = dose: 200.0 mg/kg/injection, schedule: Q04DX002 (ip), vehicle: Klucel (hydroxypropylcellulose) (HPC)
[6] = dose: 200.0 mg/kg/injection, schedule: Q04DX003 (ip), vehicle: Klucel (hydroxypropylcellulose) (HPC)
[7] = dose: 400.0 mg/kg/injection, schedule: Q04DX002 (ip), vehicle: Klucel (hydroxypropylcellulose) (HPC)
[8] = dose: 400.0 mg/kg/injection, schedule: Q04DX003 (ip), vehicle: Klucel (hydroxypropylcellulose) (HPC)
[9] = dose: 100.0 mg/kg/injection, schedule: Q01DX009 (ip), vehicle: saline with Tween-80
[10] = dose: 200.0 mg/kg/injection, schedule: Q01DX009 (ip), vehicle: saline with Tween-80
[11] = dose: 400.0 mg/kg/injection, schedule: Q01DX009 (ip), vehicle: saline with Tween-80
[12] = dose: 400.0 mg/kg/injection, schedule: Q01DX009 (ip), vehicle: Klucel (hydroxypropylcellulose) (HPC)
[13] = dose: 100.0 mg/kg/injection, schedule: Q01DX001 (ip), vehicle: saline
[14] = dose: 200.0 mg/kg/injection, schedule: Q01DX001 (ip), vehicle: saline
[15] = dose: 100.0 mg/kg/injection, schedule: Q04DX003 (ip), vehicle: saline with Tween-80
[16] = dose: 200.0 mg/kg/injection, schedule: Q04DX003 (ip), vehicle: saline with Tween-80
[17] = dose: 400.0 mg/kg/injection, schedule: Q04DX003 (ip), vehicle: saline with Tween-80
[18] = dose: 25.0 mg/kg/injection, schedule: Q04DX002 (ip), vehicle: saline with Tween-80
[19] = dose: 50.0 mg/kg/injection, schedule: Q04DX002 (ip), vehicle: saline with Tween-80
[20] = dose: 100.0 mg/kg/injection, schedule: Q01DX001 (ip), vehicle: Klucel (hydroxypropylcellulose) (HPC)
[21] = dose: 200.0 mg/kg/injection, schedule: Q01DX001 (ip), vehicle: Klucel (hydroxypropylcellulose) (HPC)
[22] = dose: 400.0 mg/kg/injection, schedule: Q01DX001 (ip), vehicle: Klucel (hydroxypropylcellulose) (HPC)
[23] = dose: 400.0 mg/kg/injection, schedule: Q01DX001 (ip), vehicle: saline

Measured: T/C

CC(=O)Nc1ccc(OC(=O)Nc2cc(C)ccc2C)cc1
inactive: dose: 25.0 mg/kg/injection, schedule: Q01DX009 (ip), vehicle: Klucel (hydroxypropylcellulose) (HPC) 109 % of control | dose: 50.0 mg/kg/injection, schedule: Q01DX009 (ip), vehicle: Klucel (hydroxypropylcellulose) (HPC) 88 % of control | [1] 94 % of control | [2] 102 % of control | [3] 95 % of control | [4] 89 % of control | [5] 97 % of control | [6] 97 % of control | [7] 100 % of control | [8] 93 % of control

COc1ccc([N+](=O)[O-])cc1Br
inactive: [9] 100 % of control | [10] 96 % of control | [11] 98 % of control

CCCCCCCCCc1c(C)[nH]c2ccccc2c1=O
inactive: [1] 94 % of control | dose: 100.0 mg/kg/injection, schedule: Q04DX003 (ip), vehicle: saline 100 % of control | [4] 86 % of control | dose: 200.0 mg/kg/injection, schedule: Q04DX003 (ip), vehicle: saline 104 % of control | [12] 86 % of control | dose: 400.0 mg/kg/injection, schedule: Q04DX003 (ip), vehicle: saline 100 % of control

CC(=O)OCC1OC(n2c(Br)nc3c(N)ncnc32)C(OC(C)=O)C1OC(C)=O (configuration not stated)
inactive: dose: 50.0 mg/kg/injection, schedule: Q01DX001 (ip), vehicle: saline 98 % of control | dose: 100.0 mg/kg/injection, schedule: Q01DX001 (ip), vehicle: carboxymethylcellulose (CMC) 98 % of control | [13] 95 % of control | dose: 100.0 mg/kg/injection, schedule: Q01DX005 (ip), vehicle: saline 89 % of control | dose: 200.0 mg/kg/injection, schedule: Q01DX001 (ip), vehicle: carboxymethylcellulose (CMC) 95 % of control | [14] 104 % of control | dose: 200.0 mg/kg/injection, schedule: Q01DX005 (ip), vehicle: saline 93 % of control | dose: 400.0 mg/kg/injection, schedule: Q01DX001 (ip), vehicle: carboxymethylcellulose (CMC) 101 % of control

CCOC(=O)c1cnc(SC)nc1OCC
inactive: dose: 12.0 mg/kg/injection, schedule: Q01DX001 (ip), vehicle: Klucel (hydroxypropylcellulose) (HPC) 93 % of control | dose: 25.0 mg/kg/injection, schedule: Q01DX001 (ip), vehicle: Klucel (hydroxypropylcellulose) (HPC) 104 % of control

COC(=O)c1ccc(Cn2ccc(=O)[nH]c2=O)cc1
inactive: dose: 50.0 mg/kg/injection, schedule: Q04DX003 (ip), vehicle: saline with Tween-80 92 % of control | [15] 95 % of control | [16] 89 % of control

Cc1cc(-c2cc(C)sc2C)c(C)s1
inactive: [9] 87 % of control | [15] 96 % of control | [10] 92 % of control | [16] 94 % of control | [11] 94 % of control | [17] 96 % of control

N#C/C(=C\C1CCC(OCC2CCCCC2)CC1)C1CCC([N+](=O)[O-])CC1 (configuration not stated)
inactive: [18] 97 % of control | [19] 102 % of control | dose: 100.0 mg/kg/injection, schedule: Q04DX002 (ip), vehicle: saline with Tween-80 100 % of control and 91 % of control

Cc1nc(N(C)C)c2cnn(-c3ccccc3)c2n1
inactive: dose: 50.0 mg/kg/injection, schedule: Q01DX009 (ip), vehicle: saline with Tween-80 106 % of control | dose: 100.0 mg/kg/injection, schedule: Q01DX001 (ip), vehicle: acetone 101 % of control | [9] 87 % of control | dose: 200.0 mg/kg/injection, schedule: Q01DX001 (ip), vehicle: acetone 97 % of control

O=C(CC(=O)c1ccccc1)CC(=O)c1ccccc1
inactive: [20] 97 % of control | [21] 100 % of control | [22] 94 % of control

COC(=O)NS(=O)(=O)/C=C\n1c2ccccc2c2ccccc21
inactive: dose: 75.0 mg/kg/injection, schedule: Q01DX009 (ip), vehicle: Klucel (hydroxypropylcellulose) (HPC) 98 % of control | dose: 150.0 mg/kg/injection, schedule: Q01DX009 (ip), vehicle: Klucel (hydroxypropylcellulose) (HPC) 109 % of control

CC(Oc1cc(Cl)c(Cl)cc1Cl)C(=O)ON(C)C (configuration not stated)
inactive: [1] 100 % of control | [4] 100 % of control

COc1ccc(C(=O)/C=C\c2ccc(Cl)c(Cl)c2)cc1
inactive: [2] 100 % of control | [5] 97 % of control | [7] 107 % of control

ClCC1(CCl)COC(c2ccccc2)OC1
inactive: [15] 95 % of control | [16] 93 % of control | [17] 92 % of control

CC1=CCC(=C(C)C)C1C(=O)NC1CCCCC1 (configuration not stated)
inactive: [13] 97 % of control | dose: 100.0 mg/kg/injection, schedule: Q01DX009 (ip), vehicle: propolene glycol 105 % of control | dose: 200.0 mg/kg/injection, schedule: Q01DX009 (ip), vehicle: propolene glycol 109 % of control | [23] 100 % of control | dose: 400.0 mg/kg/injection, schedule: Q01DX009 (ip), vehicle: propolene glycol 106 % of control

O=C(Nc1ccc(C2=NCCN2)cc1)c1cccc(NC(=S)Nc2ccc(C3=NCCN3)cc2)c1
inactive: dose: 5.0 mg/kg/injection, schedule: Q01DX Z (ip), vehicle: saline 107 % of control and 122 % of control | dose: 20.0 mg/kg/injection, schedule: Q01DX Z (ip), vehicle: saline 102 % of control and 113 % of control | dose: 60.0 mg/kg/injection, schedule: Q01DX Z (oral), vehicle: saline 103 % of control | dose: 120.0 mg/kg/injection, schedule: Q01DX Z (oral), vehicle: saline 111 % of control

CCSC(C)(C)C(C)(C#N)NNC(C)(C#N)C(C)(C)SCC (configuration not stated)
inactive: [13] 101 % of control | [14] 95 % of control | [23] 93 % of control

C=C[CH2][Sn]([Br])([c]1ccccc1)[c]1ccccc1
inactive: dose: 1.56 mg/kg/injection, schedule: Q01DX009 (ip), vehicle: saline with Tween-80 89 % of control | dose: 3.13 mg/kg/injection, schedule: Q01DX009 (ip), vehicle: saline with Tween-80 92 % of control

OC(Cn1cnc2ccccc21)c1ccccc1 (configuration not stated)
inactive: [3] 96 % of control | [6] 97 % of control | [8] 94 % of control

O=C(O)c1ccccc1C(=O)c1ccc2ccccc2c1
inactive: dose: 12.5 mg/kg/injection, schedule: Q04DX002 (ip), vehicle: saline with Tween-80 94 % of control | [18] 88 % of control | [19] 91 % of control

Cc1cc2nc3[nH]c4c(Cl)cc(Cl)cc4c3nc2cc1C
inactive: [13] 91 % of control | [14] 89 % of control | [23] 89 % of control

C=CCCn1cc(C)c(=O)[nH]c1=O
inactive: [1] 103 % of control | [4] 116 % of control | [12] 100 % of control

CCN(C(=S)c1ccc(Cl)cc1)c1cccc(C)c1
inactive: [20] 103 % of control | [3] 94 % of control | [21] 99 % of control | [6] 103 % of control | [22] 94 % of control | [8] 100 % of control

OC1(C2(O)CCCCC2)CCCCC1
inactive: dose: 100.0 mg/kg/injection, schedule: Q04DX002 (ip), vehicle: gum acacia 101 % of control | dose: 200.0 mg/kg/injection, schedule: Q04DX002 (ip), vehicle: gum acacia 104 % of control | dose: 400.0 mg/kg/injection, schedule: Q04DX002 (ip), vehicle: gum acacia 96 % of control

O=C(O)CCc1ccc([N+](=O)[O-])cc1Cl
inactive: [3] 96 % of control | [6] 101 % of control | [8] 101 % of control

O=C(Nc1ccc([N+](=O)[O-])cn1)Nc1ccccc1F
inactive: [20] 92 % of control | [1] 101 % of control and 90 % of control | [3] 99 % of control | [21] 89 % of control | [4] 100 % of control and 87 % of control | [6] 105 % of control | [22] 92 % of control | [12] 101 % of control and 90 % of control | [8] 99 % of control

COc1nccc2ccccc12
inactive: [15] 94 % of control | [16] 92 % of control
